According to patent US10188110B2 (TELEFLEX MEDICAL INCORPORATED, priority 2010, dated 2019):
Counter-ions that a name gives are not always drawn. Like-named read-outs stand apart in the source and are kept apart here.

Tests used:
[1] = test system: S. aureus; conditions: for S. Aureus Avg. ZOI, HCl Alone: Table 8
Procedure: (§1) Agar plates and cultures of S. aureus, P. aeruginosa, and Enterobacter aerogenes (E. aerogenes) were set up as described in EXPERIMENT 8. […] Cultures were diluted to 1×10^8 CFU/ml.
(§2) From each of the test solution, 20 μL was then dispensed over the Kirby Bauer diffusion disks. The disks were air dried for five minutes and using forceps applied over the agar plates. Plates were then incubated for 24 hours at 37° C. Subsequently the zones of inhibition were measured, in millimeters (mm) using calipers. Each test was run in triplicate.

[2] = test system: S. aureus and P. aeruginosa
Source text: One centimeter long catheter segments were cut from Multi-lumen Central Venous Catheters (CVC) from Rifampin and Minocycline impregnated CVCs (Rif/Mino). Cultures of S. aureus and P. aeruginosa were started in Muller Hinton Broth. For each organism, concentration of the inoculum was adjusted to 1×10^8 CFU/ml using 0.5 McFarland standard. […] Plates were sneaked with a single organism using a sterile cotton applicator that was dipped into the broth culture. Using sterile forceps, 1 cm long catheter segments from the control and Rif/Mino catheters were vertically inserted into the agar. Plates were then incubated for 24 hours at 37° C. Each test was run in triplicate. Subsequently the zones of inhibition (ZOI) were measured, in millimeters (mm) using calipers and the three ZOI measurements for each test were averaged.

[3] = test system: Enterobacter aerogenes (E. aerogenes); test: Kirby-Bauer disk diffusion in HCl agar; format: cell-based; conditions: for E. aerogenes Avg. ZOI: 5-FU 256 ppm
Procedure: as §1, §2

[4] = test system: S. aureus and P. aeruginosa; conditions: HCl Conc. 0.001 M, Table 7
Procedure: as §1, §2

| Structure (SMILES) | S. Aureus Avg. ZOI, HCl Alone ([1]; HCl Conc. 0.001 M) [mm] | S. Aureus Avg. ZOI, HCl Alone ([1]; HCl Conc. 0.01 M) [mm] | Avg. ZOI HCl Alone ([2]; HCl Conc. 0.001 M, Table 6) [mm] | highest HCl concentration that allowed formation of a confluent lawn of organisms ([2]; Muller Hinton Agar plates) [M] | E. aerogenes Avg. ZOI, HCl Alone ([3]; HCl Conc. 0.01 M, Table 9) [mm] | Avg. ZOI HCl Alone [4] [mm] | S. Aureus Avg. ZOI ([1]; 5-FU 8 ppm, HCl Conc. 0 M) [mm] | S. Aureus Avg. ZOI ([1]; 5-FU 8 ppm, HCl Conc. 0.001 M) [mm] | S. Aureus Avg. ZOI ([1]; 5-FU 8 ppm, HCl Conc. 0.01 M) [mm] | S. Aureus Avg. ZOI ([1]; 5-FU 16 ppm, HCl Conc. 0 M) [mm] | S. Aureus Avg. ZOI ([1]; 5-FU 16 ppm, HCl Conc. 0.001 M) [mm] | S. Aureus Avg. ZOI ([1]; 5-FU 16 ppm, HCl Conc. 0.01 M) [mm] | E. aerogenes Avg. ZOI ([3]; HCl Conc. 0 M) [mm] | E. aerogenes Avg. ZOI ([3]; HCl Conc. 0.01 M) [mm] | effect of HCl on inhibition ([3]; HCl concentration of 0.01 M) |
| --- | --- | --- | --- | --- | --- | --- | --- | --- | --- | --- | --- | --- | --- | --- | --- |
| Cl [HCl, hydrochloric acid] | 0 | 0 | 0 | 0.01 | 0 | 0 | – | – | – | – | – | – | – | – | – |
| O=c1[nH]cc(F)c(=O)[nH]1 [5-FU, 5-Fluorouracil] | – | – | – | – | – | – | 0.0 | 0.0 | 13.8 | 10.0 | 11.5 | 21.4 | 16.15 | 18.95 | enhanced inhibition |
